In patent US10207030B2, “Implantable devices for bone or joint defects” (University of Utah Research Foundation, priority 2013, dated 2019):

Tested on: S. aureus
Assay: MIC of tobramycin (previously determined)
Format: cell-based
Conditions: Staphylococcus aureus

For NC[C@H]1O[C@H](O[C@H]2[C@H](O)[C@@H](O[C@H]3O[C@H](CO)[C@@H](O)[C@H](N)[C@H]3O)[C@H](N)C[C@@H]2N)[C@H](N)C[C@@H]1O [tobramycin], the MIC was 4 µg/mL.
